Paper PMC6750895 (Journal of Medicinal Chemistry, 2019)
Entries after “also recorded” stand apart in the source; their conditions may differ.

Columns and labels:
MsCI4 = biological target: T1, MsCI4 (Magnetospirillum gryphiswaldense, UniProt A4TVL0); test: FRET-based binding assay with WT MsCI4; conditions: for binding in the FRET assay (in words): WT MsCI4
T1 construct: made in house
T1 sequence (A4TVL0 1-124): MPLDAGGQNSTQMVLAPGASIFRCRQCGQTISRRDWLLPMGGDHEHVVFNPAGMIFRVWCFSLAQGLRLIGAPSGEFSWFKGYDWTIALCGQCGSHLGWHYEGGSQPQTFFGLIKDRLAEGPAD

IKZF3 = test: Compound-mediated IKZF3 degradation in OPM-2 cells (western blot); format: cell-based, human; conditions: 24 h
[1] = spontaneous hydrolysis, physiological pH of 7.4; cited from earlier work
[2] = set-up: method as in earlier work; conditions: urine; cited from earlier work
[3] = Solubility in water or bicarbonate buffer; format: physicochemical

Compound | binding in the FRET assay (in words) (MsCI4) | effect on IKZF3 levels / IKZF3 recruitment (in words) (IKZF3) | other results
O=C1CC(N2C(=O)c3cccc([N+](=O)[O-])c3C2=O)C(=O)N1 (stereo not shown) [4a, 2-(2,5-Dioxopyrrolidin-3-yl)-4-nitroisoindoline-1,3-dione] | binding was observed but could not be quantified | abolish IKZF3 recruitment | 
O=C(/C=C/c1ccccc1)NC1CC(=O)NC1=O (stereo not shown) [7f, N-(2,5-Dioxopyrrolidin-3-yl)cinnamamide] |  | significant effects | 
O=C1CCC(N2C(=O)c3ccccc3C2=O)C(=O)N1 (stereo not shown) [thalidomide] |  |  | half-life [1]: 5.5 to 7.3 h
O=C1CC(NC(=O)c2sc3ccccc3c2Cl)C(=O)N1 (stereo not shown) [7g, 3-Chloro-N-(2,5-dioxopyrrolidin-3-yl)benzo[b]thiophene-2-carboxamide] | binding was observed but could not be quantified |  | 
NC(=O)CCC(C(=O)O)N1C(=O)c2ccccc2C1=O (stereo not shown) [2-phthalimidoglutaramic acid] |  |  | share among urinary metabolites of thalidomide [2]: ~50%
O=C1CC(NC(=O)OCc2ccccc2)C(=O)N1 (stereo not shown) [7d, Benzyl (2,5-Dioxopyrrolidin-3-yl)carbamate] |  | significant effects | reduction of IKZF3 levels (IKZF3; 100 μM): about 20%
Nc1cccc2c1C(=O)N(C1CC(=O)NC1=O)C2=O (stereo not shown) [5a, 4-Amino-2-(2,5-dioxopyrrolidin-3-yl)isoindoline-1,3-dione] | binding was observed but could not be quantified | significant effects | 
O=C(O)CCC(=O)NCc1ccc(COC(=O)NC2CC(=O)NC2=O)cc1 (stereo not shown) [12a, 4-((4-((((2,5-Dioxopyrrolidin-3-yl)carbamoyl)oxy)methyl)benzyl)amino)-4-oxobutanoic Acid] |  | abolished IKZF3 recruitment | 
CC(C)=CC(=O)NC1CC(=O)NC1=O (stereo not shown) [7a, N-(2,5-Dioxopyrrolidin-3-yl)-3-methylbut-2-enamide] | binding was observed but could not be quantified |  | 
NCc1ccc(COC(=O)NC2CC(=O)NC2=O)cc1.O=C(O)C(F)(F)F (stereo not shown) [11a, (4-((((2,5-Dioxopyrrolidin-3-yl)carbamoyl)oxy)methyl)phenyl)methanaminium 2,2,2-Trifluoroacetate] |  | abolished IKZF3 recruitment | solubility in water (in words) [3]: water-soluble
O=C1CC(NC(=O)Cc2ccccc2)C(=O)N1 (stereo not shown) [7b, N-(2,5-Dioxopyrrolidin-3-yl)-2-phenylacetamide] | binding was observed but could not be quantified | abolished IKZF3 recruitment | 
O=C1CC(NC(=O)c2cc([N+](=O)[O-])cc([N+](=O)[O-])c2)C(=O)N1 (stereo not shown) [7e, N-(2,5-Dioxopyrrolidin-3-yl)-3,5-dinitrobenzamide] | binding was observed but could not be quantified; also recorded: affinity was decreased under the detectable levels of the FRET assay |  | 
NCc1ccc(COC(=O)NC2CCC(=O)NC2=O)cc1.O=C(O)C(F)(F)F (stereo not shown) [11b, (4-((((2,6-Dioxopiperidin-3-yl)carbamoyl)oxy)methyl)phenyl)methanaminium 2,2,2-Trifluoroacetate] |  |  | Ki (MsCI4): 10 ± 0.8 µM; solubility in water (in words) [3]: water-soluble
N[C@H]1CC[C@@H](COC(=O)NC2CCC(=O)NC2=O)CC1 (stereo partly shown) [16b] |  |  | Ki (MsCI4): 5 ± 0.5 µM; solubility in water (in words) [3]: water-soluble
O=C1CCC(NC(=O)c2ccccc2C(=O)O)C(=O)N1 (stereo not drawn) [CBG, α-(2-carboxybenzamido)glutarimide, reference compound] |  |  | share among urinary metabolites of thalidomide [2]: ~30%
N[C@H]1CC[C@@H](COC(=O)NC2CC(=O)NC2=O)CC1 (stereo partly shown) [16a] |  |  | Ki (MsCI4): 20 ± 2 µM; solubility in water (in words) [3]: water-soluble
O=C1CCC(N2C(=O)c3ccc([N+](=O)[O-])cc3C2=O)C(=O)N1 (stereo not shown) [4d, 2-(2,6-Dioxopiperidin-3-yl)-5-nitroisoindoline-1,3-dione] |  | abolish IKZF3 recruitment | 
O=C1CC(N2C(=O)c3ccc([N+](=O)[O-])cc3C2=O)C(=O)N1 (stereo not shown) [4b, 2-(2,5-Dioxopyrrolidin-3-yl)-5-nitroisoindoline-1,3-dione] |  | abolish IKZF3 recruitment | 
O=C1CCC(N2C(=O)c3cccc([N+](=O)[O-])c3C2=O)C(=O)N1 (stereo not shown) [4c, 2-(2,6-Dioxopiperidin-3-yl)-4-nitroisoindoline-1,3-dione] | binding was observed but could not be quantified | abolish IKZF3 recruitment | 
